Source: patent US10066025B2, “Compositions and methods for detecting, treating and preventing diseases and disorders” (YALE UNIVERSITY, priority 2012, dated 2018)

Experiments:
[1] = system: renal ischemia/reperfusion (IR) injury; test: Murine model of renal ischemia/reperfusion (IR) injury, plasma creatinine; type: in vivo, mice; settings: for effect of ERK or PI3K/AKT inhibitor pretreatment on protective action of RP-H220 / protection against ischemic AKI (renal injury, plasma creatinine at 24 hr): WT mice; for effect of ERK or PI3K/AKT inhibitor pretreatment on protective action of RP-H220: 30 min renal IR; for severity of AKI, inhibitor alone without the peptides: ischemic WT mice; for renal protection (plasma creatinine): 5 mg/kg i.p., 30 min. renal IR; for protection against ischemic AKI (renal injury, plasma creatinine at 24 hr): renalase peptides 100 μg subcutaneous 10 to 30 min prior to 30 min renal ischemia
Description: Adult male renalase deficient (KO) mice (Wu et al., 2011, Kidney Int 79: 853-860) on a C57BL/6 background were subjected to renal ischemia/reperfusion (IR) as described (Kim et al., 2009, Kidney Int 75: 809-823; Kim et al., 2010, Am J Physiol Renal Physiol 299(2):F347-58). Renalase KO or wild type (WT) mice (C57BL/6 from Harlan Labs, Indianapolis, Ind.) were subjected to sham-operation or to 20 min. (moderate) or 30 min. (severe) renal ischemia and 24 hr. reperfusion. To test the renal protective effects of recombinant human renalase, mice were pretreated with saline (vehicle) or with recombinant renalase (0.5, 1.5 or 4.5 mg/kg, s.c.) 10 min. prior to 30 min. renal ischemia. It was also tested whether renalase treatment after completion of renal ischemia also provides renal protection. Separate cohorts of mice were treated with saline or with renalase (1.5 mg/kg, s.c.) 30 min. or 60 min. after reperfusion of the ischemic kidney. To test whether blocking alpha receptors would mimic the renal protective effects of human recombinant renalase administration, phentolamine (an alpha receptor antagonist, 5 mg/kg, i.p.) was given in some mice 15 min. before renal ischemia.
Plasma creatinine was measured as described with an enzymatic creatinine reagent kit according to the manufacturer's instructions (Thermo Fisher Scientific, Waltham, Mass.) (Slot, 1965, J Clin Lab Invest 17: 381-387).
After animal care and use committee approval, adult male C57BL/6 (Harlan Labs, Indianapolis, Ind.) were subjected to sham-operation or to 30 minutes of renal ischemia followed by 24 hrs of reperfusion as previously described (Lee et al., 2004, American journal of physiology. Renal physiology 286:F298-306). To test the renal protective effects of renalase peptides (RP-220, RP-H220 and RP-224), mice were pretreated with saline (vehicle) or with renalase peptides (100 μg subcutaneous) 10 to 30 minutes prior to renal ischemia.
Blood was collected from mice anesthetized with isoflurane via cardiac puncture into a heparinized syringe and was subsequently centrifuged to separate plasma. Samples were submitted to the Yale O'Brien Kidney Center for measurement of BUN and creatinine. Plasma creatinine was measured either by an enzymatic creatinine reagent kit according to the manufacturer's instructions (Thermo Fisher Scientific, Waltham, Mass.) or by HPLC. These methods of creatinine measurement largely eliminate the interferences from mouse plasma chromagens, known to occur with the Jaffe method.

[2] = system: systemic blood pressure; test: Blood pressure and heart rate in anesthetized mice; type: in vivo; settings: for effect on systemic blood pressure: IV and subcutaneous administration, mice
Description: As in 14A, except that RP-H220 is injected; no significant changes in blood pressure (FIG. 14B). Effect of a single intravenous injection of RP-220 (squares) and RP-H220 (diamonds) on heart rate in wild type mice (FIG. 14C).
FIG. 21 depicts the results of experiments examining the effect of RP-220 injection on blood pressure. A single subcutaneous injection of RP-220 (n=3) or buffer (n=2) in anesthetized wild type mice; BP pressure is recorded continuously; RP-220 is given at time 0; each data point represents the mean pressure; the standard error of the means are shown.
Systolic and diastolic pressure and heart rate were measured in anesthetized mice as previously described (Desir et al., 2012, J Am Heart Assoc. 1:e002634).

[3] = system: PI3K/AKT and MAPK pathways; test: AKT and MAPK signaling and Bcl-2 expression by western blot; type: cell-based, human; settings: HK-2 cells in culture
Description: FIG. 12, comprising FIGS. 12A through 12E, is a set of images and graphs showing renalase upregulates Bcl-2, activates PI3K/AKT, ERK, p38, and inhibits JNK. Western blot analysis; P− indicates phosphorylated, activated proteins; signals normalized to GAPDH loading control, then changes in protein phosphorylation (increase=activation, decrease=inhibition) from time 0 are calculated. FIG. 12A: HK-2 and HUVEC cells incubated with renalase for 24 hrs; FIG. 12B: Western blot of time course of AKT and MAPK signaling by renalase, HK-2 cells incubated with renalase for indicated time; changes over baseline in 4c-d are significant (p<0.05); FIG. 12C: Activation of AKT(T308), AKT(5473) and ERK; FIG. 12D: Inhibition of JNK; FIG. 12E: Marked and sustained (60 min) upregulation of p38 by renalase in the presence of cisplatin, western blot for time course, REN=renalase, CP=cisplatin.
MAPK signaling by renalase and renalase peptides. Western blot analysis; ERK: Extracellular signal-Regulated Kinase 1 and 2; JNK: c-Jun N-terminal Kinases; AKT: protein kinase B; p-indicates phosphorylated, activated proteins; representative blot, n=3 (FIG. 20A). Renalase activates AKT (FIG. 20B). Western blot analysis; P− indicates phosphorylated, activated proteins Representative blot, n=3 (FIG. 20B, left panel). Signals normalized to GAPDH loading control; n=3, change over baseline statistically significant (P<0.05) from 1-60 min for ERK, p38 and AKT (T308), and at 30 min only for AKT (S473) (FIG. 20B, right panel). ERK or AKT inhibition abrogates protective effect of RP-H220 (FIG. 20C). Plasma creatinine levels from mice subjected to sham-surgery or to renal ischemia and reperfusion (IR); Renalase WT mice were subjected to sham-surgery or to 30 min renal IR. For mice subjected to renal IR, RP-H220 or vehicle (saline) was injected 10 min prior to renal ischemia. Some animals were pretreated with either the ERK inhibitor PD98059 or the PI3K/AKT inhibitor wortmanin. (N=6-8 per group). *: P<0.05 vs. vehicle-treated mice subjected to sham-surgery; #: P<0.05 vs. vehicle-treated WT mice subjected to renal IR (FIG. 20C).

[4] = system: HK-2 cells; test: HK-2 cell cisplatin toxicity (WST-1 viability, western blot); type: cell-based, human; settings: 20 μM cisplatin, 24 hrs
Description: Cultured HK-2 cells were incubated with 20 μM cisplatin for 24 hours with and without recombinant renalase. Renalase expression was examined by Western blot and cell viability (mitochondrial integrity) was determined spectrophotometrically using WST-1, a tetrazolium salt that is cleaved, by mitochondrial dehydrogenases of metabolically active and viable cells, to formazan (420-480 nm) (Boehringer Mannheim, Germany).
(§1) HK2 cells (human proximal tubular line) obtained from ATTC (Manassas, Va., USA) were cultured in DMEM/F12 supplemented with glutamine, 10% FBS and antibiotics, and were maintained at 37° C. in 5% CO2. Cells were exposed to cisplatin (20 μM) in the presence or absence of renalase for 24 hrs, and cell viability was assessed by the WST1 method (Roche Applied Science, Germany). Cells were then harvested in RIPA buffer (20 mM Tris-HCl pH 7.5, 150 mM NaCl, 1 mM Na2EDTA, 1 mM EGTA, 1% NP-40, 1% sodium deoxycholate, 2.5 mM sodium pyrophosphate, 1 mM β-glycerophosphate, 1 mM Na3VO4, 1 μg/ml leupeptin) supplemented with a protease and phosphatase inhibitor cocktail (Roche Applied Science, Germany). Proteins were separated by SDS-PAGE and Western blotting was carried out using the following antibodies: anti-renalase monoclonal (Desir et al., 2012, J Am Heart Assoc. 1:e002634; (Lee et al., 2013, J Am Soc Nephrol 24:445-455); anti caspase 3 (Cell Signaling Technology, MA, USA) and anti Bcl2 (Thermo Scientific, USA). Necrotic injury in HK-2 cells (ATCC, Manassas, Va.) was induced with exposure to 2 mM H2O2 for 2-8 hr and lactate dehydrogenase (LDH) released into cell culture media was measured as described using a commercial LDH assay kit (Promega, Madison, Wis.) (Lee and Emala, 2002, American journal of physiology. Renal physiology 282:F844-852).

[5] = system: HK-2 cells; test: HK-2 cell necrosis induced with 2 mM H2O2 (LDH release); type: cell-based, human
Description: as §1

Compound: COc1cccc(-c2cc(=O)c3ccccc3o2)c1N [PD98059, 2′-amino 3′ methoxyflavone, reference compound]
- effect of ERK or PI3K/AKT inhibitor pretreatment on protective action of RP-H220 [1]: completely abrogated
- severity of AKI, inhibitor alone without the peptides [1]: had no effect on the severity of AKI

Compound: Cc1ccc(N(CC2=NCCN2)c2cccc(O)c2)cc1 [Phentolamine, reference compound]
- renal protection (plasma creatinine) ([1]; renalase KO mice): protected renalase KO mice
- renal protection (plasma creatinine) ([1]; renalase WT mice): produced significant renal protection

Compound: COC[C@H]1OC(=O)c2coc3c2[C@@]1(C)C1=C(C3=O)[C@@H]2CCC(=O)[C@@]2(C)C[C@H]1OC(C)=O [wortmanin, reference compound]
- effect of ERK or PI3K/AKT inhibitor pretreatment on protective action of RP-H220 [1]: A similar result was obtained
- severity of AKI, inhibitor alone without the peptides [1]: had no effect on the severity of AKI

Compound: RP 19: renalase peptide, SEQ ID NO: 8, LLRRQTSGPLYLAVWDKAED (listed as Homo sapiens)
- effect on systemic blood pressure [2]: no effect on BP

Compound: RP 128: renalase peptide, SEQ ID NO: 7, FRHRVTQINLRDDKWEVSKQ (listed as Homo sapiens)
- effect on systemic blood pressure [2]: no effect on BP

Compound: RP 220 scrambled: scrambled RP-220, SEQ ID NO: 6, CSKRIFKVISSIEDNNERG (listed as Homo sapiens) [reference compound]
- effect on systemic blood pressure [2]: no effect on BP
- effect on blood pressure and heart rate ([2]; anesthetized WT mice): no effect on blood pressure and heart rate
- AKT and MAPK signaling (phosphorylation of ERK, p38, AKT) ([3]; listed as RP-Scr220): did not activate the AKT and MAPK signaling
- AKT and MAPK signaling (phosphorylation of ERK, p38, AKT) ([3]; listed as scrambled RP H220): not

Compound: RP 220: renalase peptide, amino acids 220-239, SEQ ID NO: 3, CIRFVSIDNKKRNIESSEIG (listed as Homo sapiens)
- effect on systemic blood pressure [2]: marked and sustained effect on systemic blood pressure
- mean blood pressure decrease at 15 min ([2]; WT mice, n=4, P=NS): 11.9±0.9 mmHg
- blood pressure after single intravenous injection ([2]; anesthetized WT mice): profound fall in blood pressure
- blood pressure after subcutaneous administration ([2]; anesthetized WT mice): decreased blood pressure
- delay in the onset of fall in blood pressure after subcutaneous administration ([2]; anesthetized WT mice): 30 to 60 min
- duration of fall in blood pressure after intravenous injection ([2]; anesthetized WT mice): up to two hours
- heart rate increase ([2]; anesthetized WT mice): 5%
- onset of fall in blood pressure after intravenous injection ([2]; anesthetized WT mice): ≤ 30 s
- AKT and MAPK signaling (phosphorylation of ERK, p38, AKT) [3]: rapid and transient phosphorylation
- cell survival / protection against cisplatin toxicity [4]: improved HK-2 cell survival
- necrosis induced with 2 mM H2O2 ([5]; at 2 and 4 hrs): significantly reduced necrosis
- protection against ischemic AKI (renal injury, plasma creatinine at 24 hr) [1]: less effective
- protection against ischemic AKI (renal injury, plasma creatinine at 24 hr) ([1]; listed as RP-220): reduced renal injury

Compound: RP 224: renalase peptide amino acid 224-233, SEQ ID NO: 2, CVSIDNKKRNI (listed as Homo sapiens)
- effect on systemic blood pressure [2]: no effect on BP
- effect on blood pressure and heart rate ([2]; anesthetized WT mice): no effect on blood pressure and heart rate
- cell survival / protection against cisplatin toxicity [4]: improved HK-2 cell survival
- protection against 2 mM H2O2 necrosis ([5]; at 2 hrs): protective at 2 hrs
- protection against 2 mM H2O2 necrosis ([5]; at 4 hrs): not at 4 hrs
- protection against ischemic AKI (renal injury, plasma creatinine at 24 hr) [1]: not protective
- protection against ischemic AKI (renal injury, plasma creatinine at 24 hr) ([1]; listed as RP-224): ineffective

Compound: RP A220: renalase peptide, SEQ ID NO: 5, IRFVSIDNAAANIESSEIG (listed as Homo sapiens)
- effect on systemic blood pressure [2]: no effect on BP
